These are literature values, as cited in patent US20210319872A1, “DRUG AND DEVICE COMBINATION PRODUCTS WITH IMPROVED SAFETY AND EFFICACY PROFILES” (priority 2016, published 2021).

Read-outs that look alike come from different tables or passages of the source.

As to `O=c1n(CCCN2CCN(c3cccc(Cl)c3)CC2)nc2ccccn12` [Trazodone (Desyrel)], under “in vivo”, the Backache entry was “Musculoskeletal: Backache (5%)”; the Confusion entry is reported as “Neurologic: Confusion (up to 5.7%), Dizziness (25%), Headache”; the Constipation result is “Gastrointestinal: Constipation (7% to 8%), Diarrhea (up to 9%),”; the Diarrhea entry is “Gastrointestinal: Constipation (7% to 8%), Diarrhea (up to 9%),”. Under “in vivo”, the Dizziness entry is “Neurologic: Confusion (up to 5.7%), Dizziness (25%), Headache”; the Fatigue entry is reported as “Other: Fatigue (5.7% to 15%)”; the Hypersensitivity reaction entry is “Immunologic: Hypersensitivity reaction (less than 1%)”; the Hypotension entry is recorded as “Cardiovascular: Cardiac dysrhythmia, Hypotension (3.8% to 7%),”. Further, under “in vivo”, the Nausea result is given as “Nausea (21%), Vomiting (at least 1%), Xerostomia (14% to 33.8%)”; the Vomiting result was “Nausea (21%), Vomiting (at least 1%), Xerostomia (14% to 33.8%)”; the Xerostomia entry is “Nausea (21%), Vomiting (at least 1%), Xerostomia (14% to 33.8%)”.
Regarding `CC1(C)O[C@@H]2[C@@H](CO[C@@]3(COS(N)(=O)=O)OC(C)(C)O[C@@H]23)O1` [Trokendi XR], the Hyperammonemia entry (Adolescents) is “Endocrine metabolic: Hyperammonemia (Adolescents, 26%),”. In addition, under “listed without frequency”, the “Serious side effect, Hepatic” value is given as “Hepatic: Liver failure”; the “Serious side effect, Neurologic” value is recorded as “Neurologic: Drug-induced encephalopathy”; the “Serious side effect, Psychiatric” value was “Psychiatric: Suicidal thoughts”. For the same compound, the Flushing result (pediatrics) is “Dermatologic: Flushing (pediatrics, 5%)”.
For `CN1C(=O)CN=C(c2ccccc2)c2cc(Cl)ccc21` [Valium (diazepam)], under “in vivo”, the “Common side effect, Cardiovascular” value is “Cardiovascular: Hypotension”; the “Common side effect, Musculoskeletal” value was “Musculoskeletal: Muscle weakness”; the “Common side effect, Neurologic” value is “Neurologic: Ataxia, Incoordination (3%, rectal gel), Somnolence”; the “Common side effect, Other” value is listed as “Other: Fatigue”. In addition, where the note is “in vivo”, the “Common side effect, Respiratory” value is “Respiratory: Respiratory depression”; the Diarrhea entry is listed as “Gastrointestinal: Diarrhea (4%, rectal gel)”; the Euphoria result was “Psychiatric: Euphoria (3%, rectal gel)”; the Incoordination result was “Neurologic: Ataxia, Incoordination (3%, rectal gel), Somnolence”. Moreover, for the setting “in vivo”, the Rash result is given as “Dermatologic: Rash (3%, rectal gel)” and the “Serious side effect, Hematologic” value is given as “Hematologic: Neutropenia”.
For the compound `CCCCC(=O)N(Cc1ccc(-c2ccccc2-c2nnn[nH]2)cc1)[C@H](C(=O)O)C(C)C` [Valsartan (Diovan)], under “in vivo”, the “Common side effects, listed without incidence” value is given as “Respiratory: Cough”; the Dizziness entry was “Neurologic: Dizziness (2% to 17%), Headache (greater than 1%)”; the Headache entry is listed as “Neurologic: Dizziness (2% to 17%), Headache (greater than 1%)”; the Hypotension result is “Cardiovascular: Hypotension (5.5% to 6.9%)”. Besides, the “Serum blood urea nitrogen raised” value (in vivo) is reported as “Renal: Serum blood urea nitrogen raised (heart failure, 16.6%),”.
With `COc1ccc(C(CN(C)C)C2(O)CCCCC2)cc1` (stereo not shown) [Venlafaxine (Effexor)], for the setting “in vivo”, the Abnormal ejaculation result is “Reproductive: Abnormal ejaculation (2.2% to 19%), Erectile”; the Asthenia entry is “Neurologic: Asthenia (8% to 19%), Dizziness (11% to 23.9%),”; the Dizziness result is “Neurologic: Asthenia (8% to 19%), Dizziness (11% to 23.9%),”; the Dream disorder result was “Dream disorder (3% to 7%), Headache (25% to 38%), Insomnia”. In addition, for the setting “in vivo”, the Erectile dysfunction entry was “dysfunction (2.1% to 6%), Orgasm disorder (2% to 5%)”; the Feeling nervous entry is recorded as “Psychiatric: Feeling nervous (4% to 21.3%)”; the Headache result is “Dream disorder (3% to 7%), Headache (25% to 38%), Insomnia”; the Hypertension entry is reported as “Cardiovascular: Hypertension (3% to 13%)”. Besides, under “in vivo”, the Nausea was 22%), Nausea (21% to 58%), Xerostomia (12% to 22%); the Orgasm disorder entry is on record as “dysfunction (2.1% to 6%), Orgasm disorder (2% to 5%)”; the Seizure entry is listed as “Neurologic: Seizure (0.3%)”; the Sweating symptom result was “Dermatologic: Sweating symptom (6.7% to 25%)”. Moreover, for the setting “in vivo”, the Weight loss entry was “Endocrine metabolic: Weight loss (3% to 47%)” and the Xerostomia is 22%), Nausea (21% to 58%), Xerostomia (12% to 22%).
As for `N#Cc1ccc2[nH]cc(CCCCN3CCN(c4ccc5oc(C(N)=O)cc5c4)CC3)c2c1` [Viibryd], the Serotonin syndrome (in vivo) was 0.1%. For the same compound, the “Serious side effect, Other” value (listed without frequency) was “Drug withdrawal”.
Take `Cc1nnc2n1-c1ccc(Cl)cc1C(c1ccccc1)=NC2` [Xanax (alprazolam)]: where the note is “in vivo”, the Cognitive disorder result is “Neurologic: Cognitive disorder (28.8%), Confusion (1.5% to”; the Confusion result is “Neurologic: Cognitive disorder (28.8%), Confusion (1.5% to”; the Constipation result is recorded as “Gastrointestinal: Constipation (8.1% to 26.2%), Reduced salivation”; the Decrease in appetite entry is listed as “Endocrine metabolic: Decrease in appetite (7.3% to 27.8%),”. Moreover, under “in vivo”, the Fatigue entry was “Other: Fatigue (13.9% to 48.6%)”; the Increased appetite entry is reported as “Increased appetite (7% to 32.7%), Weight increase (2.7% to 27.2%)”; the Memory impairment is given as 40.1%), Lightheadedness (20.8%), Memory impairment (15.4% to; the Reduced libido result is “Reproductive: Reduced libido (6% to 14.4%)”. In addition, where the note is “in vivo”, the Reduced salivation entry was “(32.8%), Xerostomia (10.2% to 14.7%)”; the Sedated was 33.1%), Sedated (45.2%), Somnolence (23% to 76.8%); the “Serious side effect, Dermatologic” value is given as “Dermatologic: Stevens-Johnson syndrome”; the Somnolence is recorded as 33.1%), Sedated (45.2%), Somnolence (23% to 76.8%). Besides, for the setting “in vivo”, the Weight increase result was “Increased appetite (7% to 32.7%), Weight increase (2.7% to 27.2%)” and the Xerostomia result was “(32.8%), Xerostomia (10.2% to 14.7%)”.
In the case of `C[C@@H]1CCN(C(=O)CC#N)C[C@@H]1N(C)c1ncnc2[nH]ccc12` [Xeljanz (Jak Compounds)], under “in vivo”, the Decreased lymphocyte count result is recorded as “Hematologic: Anemia, Decreased lymphocyte count (0.04%),”; the Headache entry was “Neurologic: Headache (3.4% to 4.3%)”; the “Increased HDL level” value is given as “Endocrine metabolic: Increased HDL level (10% to 12%), Raised”; the Infectious disease result is recorded as “Immunologic: Infectious disease (20% to 22%), Opportunistic”. For the same compound, under “in vivo”, the Nasopharyngitis result is listed as “Respiratory: Nasopharyngitis (2.8% to 3.8%), Upper respiratory”; the Neutropenia entry is given as “Neutropenia (0.07%)”; the “Post-transplant lymphoproliferative disorder, Epstein Barr virus associated” value is “Barr virus associated (2.3%), Tuberculosis”; the “Raised low density lipoprotein cholesterol” value is “low density lipoprotein cholesterol (15% to 19%)”. Further, for the setting “in vivo”, the “Serious side effect, Dermatologic” value is “Dermatologic: Skin cancer, Non-melanoma”; the “Serious side effect, Gastrointestinal” value is on record as “Gastrointestinal: Gastrointestinal perforation”; the “Serious side effect, Hematologic” value is “Hematologic: Anemia, Decreased lymphocyte count (0.04%),”; the “Serious side effect, Hepatic” value is reported as “Hepatic: Injury of liver”. Also, under “in vivo”, the “Serious side effect, Other” value is listed as “Other: Cancer”; the Upper respiratory infection entry was “infection (3.8% to 4.5%)”; the “Urinary tract infectious disease” value is reported as “Renal: Urinary tract infectious disease (2%)”.
